Columns and labels:
4T1 metastatic lesions = assay: Outgrowth of established 4T1 lung metastatic lesions (intravenous graft); assay type: in vivo, mouse; details: for Outgrowth of 4T1 metastatic lesions, combined with αPDL1: compound combined with αPDL1; for Outgrowth of established 4T1 metastatic lesions, single agent: lesions established 3 d before treatment
From the text: FIG. 3A-3F. DSHN, a tool small molecule agonist of NR0B2 reduces macrophage/dendritic cell induced Treg expansion and tumor growth in murine models. […] (B) Dendritic cells (left-CD11B^+; CD11C^+) and CD4^+ T cells (right) were isolated from MMTV-PyMT tumors by FACS, and treated with vehicle or DSHN for 3d. The resulting frequency of Treg (CD4^+; CD25^+; FoxP3^+) was quantified by flow cytometry (right graph), (N=3-5/group, t test). […] The percentage of divided CD8+ T cells in the second round was quantified. (D) DSHN increases efficacy of αPDL1 therapy on orthotopic E0771 tumors. An optimal number of E0771 cells were grafted into FoxP3-EGFP mice and allowed to grow until tumors reached 100 mm^3. Mice were euthanized on day 19 (waterfall plot, Fisher's exact test). (E) DSHN increases efficacy of αPDL1 therapy on orthotopic 4T1 tumors. 4T1 cells were orthotopically grafted into mice and allowed to establish for 5d prior to treatment start. Mice were euthanized on day 16 (waterfall plot, Fisher's exact test). (F) DSHN reduces metastatic outgrowth of 4T1 tumors and enhances efficacy of αPDL1 compared to placebo (p) (2-way ANOVA followed by Šidák's multiple comparison test for day 16). 4T1 cells were grafted intravenously, and lung metastatic lesions allowed to establish for 3d before treatment commenced. At the end of the study, lungs were removed and imaged ex vivo, quantified data indicated (N=10, 1-way ANOVA followed by Newman-Keuls multiple comparison test). Representative luciferase images shown to the right. * or different letters denote P<0.05 using indicated statistical test.
FIG. 7A-7I. DSHN-OMe reduces tumor and metastatic growth in murine models, in a myeloid cell-NR0B2 dependent manner. (A) E0771 cells were grafted into control mice (NR0B2^+/+; LysMCre^+) or mice where NR0B2 was knocked out in myeloid immune cells (NR0B2^fl/fl; LysMCre^+). 8 days post-graft, daily treatment with placebo or DSHN-OMe was initiated and subsequent tumor growth followed through time. Different letters denote statistical difference on the final measurement (day 21, 2-Way ANOVA followed by Šidák's post-hoc, N=5-8). (B) Waterfall plot illustration of data in (A) showing tumor volume at final day of measurement. Asterisk indicates significant difference (Chi-squared test, P<0.05). (C) Lewis Lung cells were grafted into control mice (NR0B2^+/+; LysMCre^+) or mice where NR0B2 was knocked out in myeloid immune cells (NR0B2^fl/fl; LysMCre^+). 10 days post-graft, daily treatment with placebo or DSHN-OMe was initiated and subsequent tumor growth followed through time. […] (G) EMT6 metastatic lungs were assessed for Ki67 mRNA and (H) FOXP3 mRNA. (I) EMT6 metastatic lungs were assessed for CD8+ cytotoxic T cells (CD8+). […]

RAW 264.7 cells = assay: Compound uptake assay (LC-MS/MS); assay type: in vitro ADME; details: for Intracellular compound concentration, 4 h / Intracellular compound concentration, 8 h / Intracellular compound concentration, 24 h: 50 μM
Procedure: Conversion of a carboxylic acid to an ester is often associated with better cellular uptake. Therefore, we explored whether the kinetics of uptake differed between the two compounds, using RAW 264.7 cells as a model for myeloid immune cells. RAW 264.7 cells were treated with 50 μM of DSHN or DSHN-OME for 4, 8 or 24 h. At the appropriate time-point cells were washed and subjected to LC-MS/MS to quantify intracellular compound concentration. […] At 8 h, 12.6 nM DSHN was detected.
Compound Uptake Assay. Cellular uptake of DSHN and DSHN-OMe was determined in RAW 264.7 cells cultured in 60×15 mm tissue culture dishes. Cells were treated with vehicle (0.1% DMSO), 50 μM DSHN or 50 μM DSHN-OMe for 4 h, 8 h, or 24 h. After incubation, cells were harvested, washed with PBS and cell pellets were incubated at −80° C. freezer. Next, cell pellets were resuspended in 200 μL 70:30 MeOH:H2O and sonicated to lyse cells. Debris from lysed cell suspension was removed by centrifugation. Resulting supernatant was analyzed by LC-MS/MS.

4T1 tumors = assay: Orthotopic 4T1 primary tumor growth; assay type: in vivo, mouse; details: DSHN combined with αPDL1
From the text: FIG. 3A-3F. DSHN, a tool small molecule agonist of NR0B2 reduces macrophage/dendritic cell induced Treg expansion and tumor growth in murine models. […] (B) Dendritic cells (left-CD11B^+; CD11C^+) and CD4^+ T cells (right) were isolated from MMTV-PyMT tumors by FACS, and treated with vehicle or DSHN for 3d. The resulting frequency of Treg (CD4^+; CD25^+; FoxP3^+) was quantified by flow cytometry (right graph), (N=3-5/group, t test). […] The percentage of divided CD8+ T cells in the second round was quantified. (D) DSHN increases efficacy of αPDL1 therapy on orthotopic E0771 tumors. An optimal number of E0771 cells were grafted into FoxP3-EGFP mice and allowed to grow until tumors reached 100 mm^3. […] At the end of the study, lungs were removed and imaged ex vivo, quantified data indicated (N=10, 1-way ANOVA followed by Newman-Keuls multiple comparison test). […]
We then evaluated DSHN in a model where a low, suboptimal number of E0771-luc cells were grafted orthotopically. […] Treatment was ceased after 18 days and mice were monitored through time. […] We next assessed the effects of DSHN combined with αPDL1 on growth of primary tumors (optimal number of cells used to establish graft). […] We then evaluated the ability of DSHN to impact established metastatic disease—a stage that is refractory to standard of care therapy and immune checkpoint blockade. […]

E0771 tumors = assay: Survival after orthotopic graft of a suboptimal number of E0771-luc cells; assay type: in vivo, mouse; details: treatment ceased after 18 days
From the text: We then evaluated DSHN in a model where a low, suboptimal number of E0771-luc cells were grafted orthotopically. Since NR0B2 was also implicated in regulating myeloid cell expression of PD-L1, we investigated the effect of acute DSHN combined with anti-PD-L1 (αPDL1) treatment on subsequent outgrowth of E0771 tumors. Treatment was ceased after 18 days and mice were monitored through time. […] We next assessed the effects of DSHN combined with αPDL1 on growth of primary tumors (optimal number of cells used to establish graft). […] We then evaluated the ability of DSHN to impact established metastatic disease—a stage that is refractory to standard of care therapy and immune checkpoint blockade. […] In summary, the tool compound DSHN provides proof of principle that the NR0B2-myeloid cell-Treg axis can be targeted for the treatment of breast cancer.

| SMILES | Outgrowth of 4T1 metastatic lesions, combined with αPDL1 (4T1 metastatic lesions) | Outgrowth of established 4T1 metastatic lesions, single agent (4T1 metastatic lesions) | Difference in intracellular concentration, DSHN-OMe versus DSHN (RAW 264.7 cells) [log] | Intracellular compound concentration, 4 h (RAW 264.7 cells) | Intracellular compound concentration, 8 h (RAW 264.7 cells) | Intracellular compound concentration, 24 h (RAW 264.7 cells) | Growth of established 4T1 tumors, combined with αPDL1 (4T1 tumors) | Survival of one DSHN-only treated mouse, no palpable tumor (E0771 tumors; post graft) | Survival time, combined with αPDL1 (E0771 tumors; versus placebo) |
| --- | --- | --- | --- | --- | --- | --- | --- | --- | --- |
| CCN(CC)S(=O)(=O)c1cccc2cc(C(=O)OC)c(O)cc12 [DSHN-OMe, Methyl 5-(N,N-diethylsulfamoyl)-3-hydroxy-2-naphthoate] | did not significantly influence the effects of DSHN-OMe | significantly reduced the outgrowth of established 4T1 metastatic lesions | > 2 | 7,481 nM | 19,279 nM | 11,089 nM |  |  |  |
| CCN(CC)S(=O)(=O)c1cccc2cc(C(=O)O)c(O)cc12 [DSHN, reference compound] | reduced outgrowth even further than DSHN alone | slowed the growth of metastatic lesions |  | below detection limits | 12.6 nM | no intracellular DSHN was detected | decreased growth | more than 400 days | significantly increased survival time |
